Measured values: publication PMC5344956 (Cancer Chemotherapy and Pharmacology, 2017)

How the values were obtained:
[1] = Metabolite profiling of urine (HPLC-radiochromatography); format: in vivo, human; settings: 0–72 h pool
Description: Predose and 0–72-h urine samples (grand pool of all six subjects) were prepared. Urine samples (5 mL) were centrifuged, the supernatant was transferred to a 15-mL polypropylene tube and placed on ice; the residues were extracted with 1 mL of methanol and the methanol extracts were added to the supernatants. The combined extracts were evaporated under nitrogen and reconstituted in 0.2 mL of methanol. A 0.010-mL aliquot of the reconstituted solution was removed for determination of radioactivity, and the remainder was transferred to HPLC vials and stored at −80 °C.
(§1) A Finnigan Surveyor HPLC system (Thermo Fisher Scientific Inc., San Jose, CA, USA), consisting of an LC pump plus an autosampler and a UV–Vis plus detector, was used mostly for profiling (except the post-24-h plasma samples, which were analyzed using a Dionex HPLC system). A Phenomenex® Gemini® C18, 5-μm, 3.0 × 100-mm column (Phenomenex Inc., Torrance, CA, USA) was used along with a C-12 guard column (4 × 2 mm). LC conditions were as follows: solvent A was 10 mM ammonium bicarbonate in water (pH 10.0) and solvent B was 100% methanol and the flow rate was 0.8 mL/min. The following gradient was employed (B%): 0–5 min (20%), 32 min (42%), 33 min (60%), 55 min (70%), 56–60 min (95%), and 62–70 min (20%).
(§2) Reconstituted solvent extracts (0.050–0.10 mL) of plasma, urine, or feces were injected onto the HPLC column. The post-column eluate was split after UV detection into two streams (0.64 and 0.16 mL/min). The 0.64-mL stream was diverted to a fraction collector (Gilson FX 204; Gilson Medical Electronics, Middleton, WI, USA) to be collected in 96-well plates at 0.16 min/well (ScintiPlates; PerkinElmer Life Sciences, Shelton, CT, USA), and the 0.16-mL stream was directed to the mass spectrometer. The solvent in the 96-well plates was removed at 40 °C using a Genevac evaporator (Genevac, Inc., Stone Ridge, NY, USA).
(§3) The radioactivity counts per minute (CPM) in each well was determined using a MicroBeta scintillation counter (PerkinElmer Life and Analytical Sciences). The resulting CPM vs. time data were processed using Excel (Microsoft Corporation, Seattle, WA, USA). The CPM in each well was background-subtracted (using the average CPM values of the blank region of the HPLC run). Radiochromatographic profiles were obtained by plotting the resulting net CPM values against time after injection. Radioactive peaks in the chromatographic profiles were identified, and the radioactivity in each peak was summed and reported as a percentage of TRA in the HPLC run.

[2] = Metabolite profiling of plasma (HPLC-radiochromatography); format: in vivo, human; settings: % of TRA
Description: For each subject, a 0–24 h pooled plasma sample was prepared according to the scheme outlined in the literature. In addition, several pooled plasma samples across all subjects were prepared at these time points: 5, 10, 12, […], and 48 h, and every 24 h thereafter until 240 h.
All pooled 0–24, 5, 10, 12, and 24 h plasma samples were processed as follows. […] The samples were vortexed for 30 min and centrifuged at 4500g at 4 °C for 6 min. The supernatants were transferred into new polypropylene tubes and kept on ice. The resulting plasma protein pellets were extracted twice to ensure good recovery and the extracts were combined. The combined extracts were loaded onto Ostro sample preparation plates (Waters Corporation, Milford, MA, USA), dried, eluted with 0.2 mL of cold acetonitrile, and all eluates were collected and evaporated under nitrogen (TurboVap LV; Caliper Life Sciences, Hopkinton, MA, USA). The dry residues were reconstituted in 0.1 mL of methanol, and a 0.005-mL aliquot was removed for determination of radioactivity. The remainder of the supernatants were transferred to high-performance liquid chromatography (HPLC) vials and stored at −80 °C until analysis.
Pooled post-24-h plasma samples were extracted using a slightly modified procedure. […] Appropriate volumes of formic acid were added to achieve a final concentration of 1%. Then, the samples were warmed to 37 °C and loaded to preconditioned Oasis HLB cartridges (Waters Corporation, Milford, MA, USA). These columns were then washed with water, dried under vacuum, and eluted with methanol. The eluates were collected and evaporated under nitrogen. The dry residues were reconstituted in 0.1 mL of methanol, and a 0.005-mL aliquot was removed for determination of radioactivity. The remainder of the supernatants were transferred to HPLC vials and stored at −80 °C until analysis.
as §1, §2, §3

[3] = Plasma pharmacokinetics of TRA, ponatinib and metabolites after a single oral 45-mg [14C]ponatinib dose
Description: The subject release criterion was defined as follows: the combined urine and fecal radioactivity excretion for two consecutive days should fall below 1% of the dose administered.
Detailed procedures on sample collection, storage, and shipment are described in Online Resource 1. […] Fecal homogenates were prepared by adding water (four times the feces weight) and homogenizing.
TRA analysis was carried out at ABC Laboratories. The radioactivity in plasma (duplicate per time point) and urine samples (triplicate per time point) was quantitated by direct counting in a Beckman LS6000SC or LS6500 liquid scintillation counter (PerkinElmer Life and Analytical Sciences, Boston, MA, USA). Whole blood (duplicate per time point) and fecal homogenate (triplicate per time point) samples were oxidized, and the resultant ^14CO2 was trapped in Carbosorb (Calgon Carbon Corporation, Pittsburgh, PA, USA) in combination with Permafluor, followed by liquid scintillation counting to determine the radioactivity. Individual samples were counted for 5 min for whole blood and fecal matrices, and 10 min for plasma and urine matrices. Predose blood, plasma, urine, and feces samples served as respective control samples to determine and subtract the background radioactivity in the analysis.
M14 was quantitated using a different LC/MS/MS method (Online Resource 2). The pharmacokinetic analysis was carried out using WinNonlin® v6.4 (Pharsight Corp., Mountain View, CA, USA).
Aliquots of 30 µl of calibration standards, quality controls, and incurred plasma samples were transferred into a 96-well plate. Then 150 µl of ice-cold acetonitrile containing 50 ng/ml of AP30376 (d6-AP24600, internal standard) were added. The 96-well plate was vortexed for 10 min and then centrifuged at 4750 rpm for 20 min at 4°C. 100 µl aliquots of the supernatants were transferred into another 96-well plate and the samples were analyzed by liquid chromatography tandem mass spectrometry.

[4] = male, human, in vivo, po, 45 mg

Cc1ccc(C(=O)Nc2ccc(CN3CCN(C)CC3)c(C(F)(F)F)c2)cc1C#Cc1cnc2cccnn12.Cl [Ponatinib, 3-(imidazo[1,2-b]pyridazin-3-ylethynyl)-4-methyl-N-(4-((4-methylpiperazin-1-yl)methyl)-3-(trifluoromethyl)phenyl)benzamide hydrochloride]
% of total radioactive dose [1]: <0.05% | % Distribution in matrix ([1]; % of urinary TRA): Trace levels | % Distribution in plasma ([2]; 0–24 h pooled plasma): 25.5% | % Distribution in plasma ([2]; 5 h pooled plasma): 42.4% | % Distribution in plasma ([2]; 10 h pooled plasma): 36.3% | % Distribution in plasma ([2]; 12 h pooled plasma): 51.5% | % Distribution in plasma ([2]; 36 h pooled plasma): 4.2% | % Distribution in plasma ([2]; 48 h pooled plasma): 9.4% | % Distribution in plasma ([2]; 72 h pooled plasma): 12.8% | % Distribution in plasma ([2]; 96 h pooled plasma): 13.2% | plasma level at 144 h postdose ([3]; human plasma, 144 h postdose): at or below detectable limits | AUC(0-t) [3, 4]: 3.48 µM·h | Tmax [3, 4]: 5 h | half-life [3, 4]: 1640 min | concentration at 144 h ([3]; male, human, plasma, oral, 45 mg): < 2.4 nM
